What was measured:
PGI1 [1] = target: T1, PGI1 (Arabidopsis thaliana, UniProt Q8H103); assay: inhibition at varying E4P concentrations, coupled spectrophotometric assay; format: biochemical; settings: F6P or G6P as substrate; 25 °C; reduced and oxidized PGI1
T1 construct: homodimer reported as functional unit
T1 sequence (Q8H103 70-613): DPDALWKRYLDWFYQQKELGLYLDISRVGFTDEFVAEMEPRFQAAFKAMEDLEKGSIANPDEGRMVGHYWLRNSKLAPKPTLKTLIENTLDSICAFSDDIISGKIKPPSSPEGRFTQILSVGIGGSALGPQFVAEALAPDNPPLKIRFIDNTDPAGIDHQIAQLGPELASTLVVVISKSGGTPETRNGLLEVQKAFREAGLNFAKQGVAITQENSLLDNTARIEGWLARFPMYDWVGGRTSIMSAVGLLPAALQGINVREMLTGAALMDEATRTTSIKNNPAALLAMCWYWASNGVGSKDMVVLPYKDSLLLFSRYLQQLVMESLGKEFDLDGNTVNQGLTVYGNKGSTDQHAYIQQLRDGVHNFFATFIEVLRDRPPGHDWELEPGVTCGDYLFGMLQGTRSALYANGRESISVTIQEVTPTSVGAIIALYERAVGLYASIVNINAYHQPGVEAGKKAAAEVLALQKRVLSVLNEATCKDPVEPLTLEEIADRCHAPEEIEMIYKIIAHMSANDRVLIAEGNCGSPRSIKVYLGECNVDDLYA

PGI1 [2] = target: T1, PGI1; assay: inhibition at varying 6PG concentrations, coupled spectrophotometric assay; format: biochemical; settings: F6P or G6P as substrate; 25 °C; reduced and oxidized PGI1

Compound	inhibition at varying E4P concentrations, coupled spectrophotometric assay (PGI1 [1])	inhibition at varying 6PG concentrations, coupled spectrophotometric assay (PGI1 [2])
O=C[C@H](O)[C@H](O)COP(=O)(O)O [E4P]	PGI1 activity decreased with increasing concentrations of E4P (Figure 9A and B)	–
O=C(O)[C@H](O)[C@@H](O)[C@H](O)[C@H](O)COP(=O)(O)O [6PG]	–	PGI1 activity decreased with increasing concentrations of E4P (Figure 9A and B) and 6PG
